In US20030207340A1, “Sequences encoding human neoplastic marker” (priority 2002, published 2003):

How the values were obtained:
COS cells = assay: Growth inhibition of control COS cells (nontransfected / vector alone); type: cell-based, African monkey; details: for EC50: Primates, nontransfected COS cells, growth inhibition
Procedure: (§1) COS-1 cells (African monkey kidney cell line), were plated one day prior to transfection at 4×10^5 cells per 100-mm dish. Thirty-six μl of 2 M CaCl2 and 30 μg of pcDNA3.1 or pcDNA3.1-tNOX in 300 μl sterile H2O were slowly added dropwise into 300 μl of 2× Hepes Buffered Saline (HBS) at room temperature for 30 min. The transfection mixtures then were added dropwise to the media to the cells and incubated overnight at 37C. After overnight exposure to the DNA precipitate, the cells were washed twice with PBS and 3 ml of DMSO were added for 2.5 min. The DMSO then was removed and cells were fed with fresh media for 2-3 days. tNOX expression was evaluated on the basis of enzymatic activity and Western blot analysis. For selection of stable transfectants, antibiotic G418 sulfate was used (Invitrogen, Carlsbad, Calif.). After the COS cells were transfected with the tNOX cDNA expression plasmid, 0.5 mg/ml of G418 sulfate was added into the media twice a week and the cultures were maintained until colonies 2 to 3 mm in diameter were formed. A total of three colonies were selected and trypsinized individually and then transferred into wells of a 24-well plate and then into a 35 mm petri dish. Cells were harvested at 80% confluency. Transfections were confirmed by immunoblotting.

[1] = test system: COS cells stably transfected with tNOX cDNA; assay: Growth inhibition of COS cells transfected with tNOX cDNA; type: cell-based, African monkey; details: for EC50: Primates, COS cells stably transfected with tNOX cDNA, growth inhibition; for change of growth response (susceptibility) by tNOX cDNA transfection: tNOX cDNA-transfected vs control COS cells
Description: Transient transfection of COS cells were with pcDNA3.1 (Invitrogen) and a Calcium Phosphate Transfection Kit (Invitrogen, Carlsbad, Calif.) according to the manufacturer's protocol. ttNOX cDNA was first amplified by PCR using primers 5═-[…]-3′ (forward; SEQ ID NO: 12) and 5′-[…]-3′ (reverse, SEQ ID NO: 13). The PCR product was then amplified using primers 5′-[…]-3′ (forward, SEQ ID NO: 14) and 5′-[…]-3′ (reverse, SEQ ID NO: 15) to construct a HindIII site at 5′ end of the nontemplate strand. The product was double digested using HindIII and BamHI enzymes. The digested products were separated on an agarose gel and extracted using a DNA Extraction Kit (Qiagen, Valencia, Calif.). The DNA was then ligated into a pcDNA3.1 vector that contains a cytomegalovirus enhancer-promoter for high levels of expression. For propagation of the plasmid DNA, the ligation product was used to transform XL-1 blue competent cells using heat pulse technique (Sambrook et al., 1989, supra). The positive clones were identified by PCR. The resulting plasmid was then used to transfect COS cells.
as §1

ttNOX (truncated tNOX) = target: T1, ttNOX (truncated tNOX) (Homo sapiens, UniProt Q16206); assay: NADH oxidase activity of ttNOX expressed in E. coli (induced bacterial extract); type: biochemical
T1 construct: made in house; host or cells: E. coli BL21 (DE3), vector pET-11b; crude induced bacterial extract
T1 sequence (Q16206 220-610): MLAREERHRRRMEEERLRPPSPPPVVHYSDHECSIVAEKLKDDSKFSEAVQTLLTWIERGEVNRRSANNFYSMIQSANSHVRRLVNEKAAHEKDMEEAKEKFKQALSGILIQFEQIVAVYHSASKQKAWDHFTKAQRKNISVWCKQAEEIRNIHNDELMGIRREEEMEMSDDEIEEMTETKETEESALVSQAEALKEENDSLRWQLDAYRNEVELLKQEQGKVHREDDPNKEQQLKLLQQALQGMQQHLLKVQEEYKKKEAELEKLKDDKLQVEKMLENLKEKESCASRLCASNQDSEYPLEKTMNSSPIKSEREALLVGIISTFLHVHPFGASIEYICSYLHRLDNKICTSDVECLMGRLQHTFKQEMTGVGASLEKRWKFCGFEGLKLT
Description: tNOX cDNA from clone 1 was expressed in E. coli either as a truncated form (ttNOX) (beginning at M220), as a fusion protein with six histidine residues (ttNOX-his) fused to the amino terminus of ttNOX, or as a processed tNOX (beginning at G327). First, the open reading frame of ttNOX DNA and nucleotides of 3′-untranslated region were amplified by PCR, digested with NdeI and BamHI followed by ligation into the protein expression vector pET-11b. All primers were synthesized by the Laboratory for Macromolecular Structure (Purdue University, IN). Primers for PCR amplification of ttNOX were 5′-[…]-3′ (forward, SEQ ID NO: 6) and 5′[…]-3′ (reverse, SEQ ID NO: 7). Primers for processed form of tNOX were 5′-[…]-3′ (forward, SEQ ID NO: 8) and 5′-[…]-3′ (reverse, SEQ ID NO: 9). Primers for histidine-tagged ttNOX were 5′-[…]-3′ (forward, SEQ ID NO: 10) and 5′-[…]-3′ (reverse, SEQ ID NO: 11). The forward primer was designed to incorporate six histidine residues to the amino terminus of tNOX protein. The amplification performed was with an initiation step of 94C. for 90 sec, followed by 90 sec of denaturation at 94C., 90 sec of annealing at 55C., and 90 sec of extension at 72C. for 29 cycles.
E. coli [BL21 (DE3)] were transfected and grown in LB medium containing ampicillin (100 μg/ml) for 16 hr at 25C. and harvested. DNA sequences of the ligation products were confirmed by DNA sequencing. Expressions of all forms of tNOX were confirmed by SDS-PAGE with silver staining and immunoblotting. Immunoblot analysis was with anti-tNOX monoclonal antibody. Detection used alkaline […] conjugated anti-mouse antibody.

[2] = test system: plasma membranes prepared from HeLa cells; details: cited from earlier work
tNOX = target: T2, tNOX (Homo sapiens, UniProt Q16206); details: cited from earlier work
T2 sequence (Q16206 1-610): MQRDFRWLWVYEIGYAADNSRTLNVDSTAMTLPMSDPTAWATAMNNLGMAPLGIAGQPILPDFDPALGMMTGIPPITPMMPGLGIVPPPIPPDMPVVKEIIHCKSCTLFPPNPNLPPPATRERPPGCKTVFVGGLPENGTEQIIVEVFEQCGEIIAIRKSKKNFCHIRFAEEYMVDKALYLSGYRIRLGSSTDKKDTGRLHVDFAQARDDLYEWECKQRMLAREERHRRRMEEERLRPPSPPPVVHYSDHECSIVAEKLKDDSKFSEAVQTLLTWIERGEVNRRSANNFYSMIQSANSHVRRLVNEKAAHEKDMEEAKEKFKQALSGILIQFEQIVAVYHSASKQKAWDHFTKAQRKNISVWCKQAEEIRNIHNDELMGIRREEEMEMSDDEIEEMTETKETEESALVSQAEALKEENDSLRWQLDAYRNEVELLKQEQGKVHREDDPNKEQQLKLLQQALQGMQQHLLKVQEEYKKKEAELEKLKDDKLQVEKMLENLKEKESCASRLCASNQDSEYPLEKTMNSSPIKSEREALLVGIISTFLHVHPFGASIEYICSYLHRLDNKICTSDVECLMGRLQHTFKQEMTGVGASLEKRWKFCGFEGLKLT

CNOX = details: cited from earlier work

Compound | EC50 (COS cells) | EC50 [1] | change of growth response (susceptibility) by tNOX cDNA transfection [1] | also measured
COc1cccc2c1C(=O)c1c(O)c3c(c(O)c1C2=O)C[C@@](O)(C(=O)CO)C[C@@H]3O[C@H]1C[C@H](N)[C@H](O)[C@H](C)O1 [Adriamycin, adriamycin] | 300 nM | 40 nM |  | 
COc1cc(CNC(=O)CCCC/C=C/C(C)C)ccc1O [Capsaicin, 8-methyl-N-vanillyl-6-noneamide] | 13000 nM | 1300 nM | more susceptible | inhibition of the activity of the bacterially expressed protein (ttNOX (truncated tNOX)): complete; periodic NADH oxidase activity of induced bacterial extracts (ttNOX (truncated tNOX); in the presence of 1 or 100 μM capsaicin): no periodic activity
Cc1ccc(S(=O)(=O)NC(=O)Nc2ccc(Cl)cc2)cc1 [LY181984, N-(4-methylphenylsulfonyl)-N′-(4-chlorophenyl)urea] | 20000 nM | 3000 nM |  | oxygen uptake by HeLa plasma membranes [2]: inhibited; inhibition of NADH oxidase activity of induced bacterial extract (ttNOX (truncated tNOX); 1 μM): completely inhibited
Cc1ccc(S(=O)(=O)NC(=O)Nc2ccccc2)cc1 [LY181985, N-(4-methylphenylsulfonyl)-N′-(4-phenyl)urea] |  |  |  | growth inhibition (COS cells; control cells transfected with vector alone): did not inhibit; growth inhibition ([1]; cells transfected with tNOX cDNA): did not inhibit
CN(Cc1cnc2nc(N)nc(N)c2n1)c1ccc(C(=O)N[C@@H](CCC(=O)O)C(=O)O)cc1 [Methotrexate, methotrexate] | 1000 nM | 1000 nM | unaffected | 
(−)-epigallocatechin gallate [EGCg] |  |  | more susceptible | effect on activity of tNOX (tNOX): inhibits; effect on constitutive CNOX (CNOX): largely without effect
